Entries after “also recorded” stand apart in the source; their conditions may differ.
Key:
[1] = molecular target: ERα ligand binding domain (Homo sapiens (Human), UniProt P03372); experiment: Competitive [3H]-estradiol radioligand binding, ERα (Example 21)
Description: (§1) ER binding affinity was determined via one of the following methods:
(§2) Briefly, the incubation mixture was filtered through a high affinity protein binding filter, and washed several times to remove any unbound radioactivity. The filter plate was air dried and sealed on the bottom.
(§3) Following incubation, plates were harvested onto GF/B filters and radioactivity was measured with a TopCount NXT (PerkinElmer). Nonspecific binding was subtracted from total binding to yield specific binding.

[2] = molecular target: ERβ ligand binding domain (Homo sapiens (Human), UniProt Q92731); experiment: Competitive [3H]-estradiol radioligand binding, ERβ (Example 21); conditions: ratio between the binding constants of ER-α and ER-β
ERβ ligand binding domain, sequence (Q92731 264-498, species assumed): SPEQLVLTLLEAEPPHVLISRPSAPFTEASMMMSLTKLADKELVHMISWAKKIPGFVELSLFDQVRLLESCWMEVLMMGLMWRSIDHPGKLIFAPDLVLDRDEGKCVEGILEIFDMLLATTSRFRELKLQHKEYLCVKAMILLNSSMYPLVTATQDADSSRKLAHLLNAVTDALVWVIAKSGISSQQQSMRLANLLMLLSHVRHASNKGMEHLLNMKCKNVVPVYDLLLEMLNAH
Description: as §1, §2, §3

[3] = system: THP-1 macrophage cell adhesion to bEND-3 endothelial cells; experiment: Macrophage adhesion assay (LPS induced THP-1 adhesion to bEND-3 endothelial cells); format: cell-based; conditions: FIG. 13
Description: To determine the anti-inflammatory effects of ER-β NRBAs in vitro, a macrophage adhesion assay was performed. Macrophages adhere to endothelial cells due to elevated levels of pro-inflammatory cytokines. This principle was used in this assay to determine the effect of one of the ER-β NRBAs on bacterial lipopolysaccharide (LPS) induced THP-1 macrophage cell adhesion to bEND-3 endothelial cells.

ARPE-19 cells = experiment: Fluorescent detection of intracellular ROS in ARPE-19 cells (tBH oxidative stress); conditions: 150 μM tBH, FIG. 20B
ER-α [4] = molecular target: T1, ER-α (Rattus norvegicus (Rat), UniProt P06211); format: cell-based; conditions: 100 nM NRBA compared to 1 nM estradiol
Description: COS or 293 cells were plated in DME without phenol red+10% cs FBS at 90,000 cells per well in 24 well plates, and were transfected with 0.25 μg of the vector “ERE-LUC”, where a firefly luciferase gene was driven by two estrogen responsive elements and 0.02 μg of the control CMV-LUC, Renilla where a luciferase gene was driven by a CMV promoter. […] All the receptors were cloned from rat tissue into the PCR3.1 vector backbone. Twenty four hours post transfection, cells were treated with compounds of this invention, estrogen, DHT, and other NRBAs or combinations thereof. Cells were harvested 48 hrs after transfection, and assayed for firefly and Renilla luciferase activity.

ER-α [5] = molecular target: T1, ER-α; experiment: Transient transfection and reporter gene assay, ER-α, HEK-293 cells (Example 22A); format: cell-based; conditions: ERE-LUC
Description: Human estrogen receptors (ER-α and ER-β) were cloned from prostate cDNA into a pCR3.1 plasmid vector backbone. PGC-1 was cloned into mammalian two hybrid vector pACT. ER-β H475 was mutated to alanine using site-directed mutagenesis. Sequencing was performed to determine the absence of any non specific mutations. SHP promoter (−572 to +10) (26) was cloned into pGL3 basic LUC reporter vector and human FXR was cloned into pCR3.1. HEK-293 cells were plated at 100,000 cells per well of a 24 well plate in […] (DMEM)+5% charcoal-stripped fetal bovine serum (csFBS). The cells were transfected using Lipofectamine (Invitrogen, Carlsbad, Calif.) with 0.25 μg ERE-LUC, 0.02 μg CMV-LUC (renilla luciferase) and 12.5 ng of rat ER-α or 25 ng rat ER-β. […] Luciferase assays were performed 48 hrs after transfection.
To determine if the selectivity in ER binding also translated into ER-β-selective activity, transient transactivation assays were performed in HEK-293 cells transfected with plasmids encoding ER-α or ER-β and ERE-LUC. The cells were treated with varying concentrations of the ligands and their EC50 values were determined.

[6] = system: Ishikawa endometrial cells; experiment: Ishikawa growth assay (alkaline phosphatase); format: cell-based
Description: Ishikawa cells were plated at 15,000 cells/well in 24 well plates in DME:F12 (1:1)+5% csFBS w/o phenol red. The cells were maintained in this medium at 37° C. for 3 days. Medium was changed immediately prior to drug treatment for an additional 72 hrs. After 72 hrs, the cells were fixed with formalin and the amount of alkaline phosphatase (ALP) measured by para-nitrophenyl phosphate method.
This effect is one potential concern in the development of ER-α SERMs.

PPAR-γ = PPAR-γ transactivation (PPRE-LUC) in HEK-293 cells co-transfected with ER-β; format: cell-based; conditions: FIG. 12A left panel
Description: (§4) FIG. 12 depict the effect of ER-β ligand on PPAR-γ function through ligand binding domain (LBD). (A). HEK-293 cells were transfected with 0.25 μg PPRE-LUC, 5 ng CMV-renilla LUC and the indicated receptors (PPAR-γ and ER-β for the left panel and PPAR-α and ER-β for the right panel). The cells were treated 24 hrs after transfection with the indicated ligands and harvested 48 hrs after transfection and firefly luciferase activity was measured and normalized to renilla luciferase. (B). H475 in ER-β LBD is important for its function. H475 in ER-β LBD was mutated to alanine (A) using a site directed mutagenesis kit. Transactivation assay was performed as described in panel A in HEK-293 cells with a titration of ER-β ligands in wild type or ER-β H475A. (C). […] The cells were treated 24 hrs after transfection with the indicated ligands and harvested 48 hrs after transfection and firefly luciferase activity was measured and normalized to renilla luciferase. […] The cells were treated 24 hrs after transfection with the indicated ligands and harvested 48 hrs after transfection and firefly luciferase activity was measured and normalized to renilla luciferase. […] The cells were treated 24 hrs after transfection with the indicated ligands and harvested 48 hrs after transfection and firefly luciferase activity was measured and normalized to renilla luciferase. […]

PPAR-α = PPAR-α transactivation (PPRE-LUC) in HEK-293 cells co-transfected with ER-β; format: cell-based; conditions: FIG. 12A right panel
Description: as §4

SHP promoter [7] = experiment: SHP promoter-luciferase in HEK-293 cells transfected with FXR and ER-β; format: cell-based; conditions: FXR and ER-β plasmids, FIG. 12E right panel
Description: FIG. 12 depict the effect of ER-β ligand on PPAR-γ function through ligand binding domain (LBD). (A). HEK-293 cells were transfected with 0.25 μg PPRE-LUC, 5 ng CMV-renilla LUC and the indicated receptors (PPAR-γ and ER-β for the left panel and PPAR-α and ER-β for the right panel). The cells were treated 24 hrs after transfection with the indicated ligands and harvested 48 hrs after transfection and firefly luciferase activity was measured and normalized to renilla luciferase. (B). H475 in ER-β LBD is important for its function. H475 in ER-β LBD was mutated to alanine (A) using a site directed mutagenesis kit. Transactivation assay was performed as described in panel A in HEK-293 cells with a titration of ER-β ligands in wild type or ER-β H475A. (C). […] HEK-293 cells were transfected with 0.25 μg PPRE-LUC, 5 ng CMV-renilla LUC and 50 ng of the indicated receptors (PPAR-γ or PPAR-γ and wild type ER-β or PPAR-γ and ER-β H475A). The cells were treated 24 hrs after transfection with the indicated ligands and harvested 48 hrs after transfection and firefly luciferase activity was measured and normalized to renilla luciferase. (D). […] HepG2 cells were transfected with 0.25 μg PPRE-LUC, 5 ng CMV-renilla LUC, 0.5 μg PGC-1 or vector backbone and 100 ng of the indicated receptors (PPAR-γ or PPAR-γ and wild type ER-β or PPAR-γ and ER-β H475A for top panels and PPAR-α or PPAR-α and ER-β for bottom panel). The cells were treated 24 hrs after transfection with the indicated ligands and harvested 48 hrs after transfection and firefly luciferase activity was measured and normalized to renilla luciferase. (E). SHP-1 is an ER-β specific target gene. HEK-293 cells were transfected with 0.25 μg SHP-LUC, 5 ng CMV-renilla LUC and 50 ng of the indicated receptors (FXR and ER-α for the left panel and FXR and ER-β for the right panel). The cells were treated 24 hrs after transfection with the indicated ligands and harvested 48 hrs after transfection and firefly luciferase activity was measured and normalized to renilla luciferase. […]

[8] = system: high fat diet fed C57BL6 mice; experiment: High fat diet induced obesity model, prevention studies (studies 1 and 2)
Description: Study A: C57BL6 male mice of 4 weeks of age were divided into different groups and were fed with a normal or high fat diet (Harlan, Ind.).
For the treatment study (study 3), the animals were maintained on the irrespective diets for 6 weeks and then treated daily as indicated for an additional 18 weeks. Biweekly body weights and food consumption were measured. The animals were sacrificed at the end of each study and blood and tissues were collected for RNA isolation, histology and protein estimation.
Cholesterol and leptin concentrations were measured in serum using ELISA-based methods.
Histology was performed on cryosections and stained with oil 0 red.
Oral glucose tolerance tests (OGTT) were performed on 16-h fasted mice. Mice were given 150 mg glucose by oral gavage through a gastric tube.
Six week old C57BL/6 mice were randomized, based on body weight, into three study groups as shown in the Study Parameters Table below.
The mice were treated for 12 weeks. Twice weekly, the body weight and feed consumption were measured.
A glucose tolerance test was also performed at the completion of the study by administering 150 mg glucose orally to the mice and measuring blood glucose levels at 0, 15, 30 and 60 minutes post glucose administration.
At sacrifice, the mice organ weights were measured and collected for histology, gene expression and protein expressions. Blood was collected for serum marker determination (cholesterol, glucose, leptin).
Dual energy X-ray absorptiometry (DEXA) was performed to measure the body composition in Study 1.
An MRI scan was performed at the beginning of the study, after 6 weeks and at the completion of the study.

SHP promoter [9] = experiment: SHP promoter-luciferase in HEK-293 cells transfected with FXR and ER-α; format: cell-based; conditions: FIG. 12E left panel
Description: as §4

[10] = Brown Adipose Tissue, vs high fat diet vehicle, >2-fold, p<0.01
[11] = Liver, vs high fat diet vehicle, >2-fold, p<0.01
[12] = White Adipose Tissue, vs high fat diet vehicle, >2-fold, p<0.01
[13] = high fat diet, 30 mg/kg/day s.c., 12 weeks
[14] = high fat diet, 30 mg/kg/day s.c., 12 weeks, FIG. 7
[15] = high fat diet, 30 mg/kg/day s.c., 12 weeks, study 1
[16] = high fat diet, 30 mg/kg/day s.c., Study 2

ERα ligand binding domain, sequence (P03372 whole entry, looked up, species assumed, the tested form may be a part): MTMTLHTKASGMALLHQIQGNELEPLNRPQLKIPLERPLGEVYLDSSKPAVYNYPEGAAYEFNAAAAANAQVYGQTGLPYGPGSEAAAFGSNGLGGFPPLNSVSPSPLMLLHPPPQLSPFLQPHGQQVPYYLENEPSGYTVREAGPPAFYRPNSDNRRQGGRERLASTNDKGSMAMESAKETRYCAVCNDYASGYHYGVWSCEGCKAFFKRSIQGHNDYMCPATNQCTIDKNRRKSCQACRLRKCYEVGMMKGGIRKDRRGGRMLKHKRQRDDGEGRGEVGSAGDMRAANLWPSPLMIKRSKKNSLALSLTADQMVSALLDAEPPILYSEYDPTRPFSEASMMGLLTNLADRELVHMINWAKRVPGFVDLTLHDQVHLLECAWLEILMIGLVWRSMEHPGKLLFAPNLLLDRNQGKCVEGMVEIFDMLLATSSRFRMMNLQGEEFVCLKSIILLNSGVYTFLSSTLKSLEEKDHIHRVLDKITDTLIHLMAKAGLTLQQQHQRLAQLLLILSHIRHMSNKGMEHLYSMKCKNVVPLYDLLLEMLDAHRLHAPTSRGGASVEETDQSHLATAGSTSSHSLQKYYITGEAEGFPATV

O=c1c2c(O)cc(O)cc2c(Cl)cn1-c1ccc(O)cc1 [Compound 12y, 4-chloro-6,8-dihydroxy-2-(4-hydroxyphenyl)isoquinolin-1(2H)-one]
Ki [1]: 36 nM
Ki Ratio (ER-α/ER-β) [2]: 11
adhesion of 3H labeled THP-1 cells to bEND-3 cells [3]: significantly inhibited the adhesion
prevention of ROS formation / oxidative damage (ARPE-19 cells): protected ARPE-19 cells from oxidative damage

N#Cc1cn(-c2ccc(O)cc2)c(=O)c2c(O)cc(O)cc12 [Compound 14m, 6,8-dihydroxy-2-(4-hydroxyphenyl)-1-oxo-1,2-dihydroisoquinoline-4-carbonitrile]
Estradiol activity at 100 nM, ER-α (ER-α [4]): 49%
function at ER-α in transactivation (ER-α [5]): agonists
Ishikawa cell proliferation ([6]; FIG. 3C): weakly induce
concentration at which proliferation of Ishikawa cells was induced ([6]; highest concentration tested, ALP assay, 72 hrs): 1 µM
troglitazone-induced PPAR-γ activity (PPAR-γ): partially inhibited
WY14643 induced PPAR-α transactivation (PPAR-α): did not affect
SHP activity (SHP promoter [7]): neither of the ligands activated SHP
prevention of body weight increase caused by the high fat diet ([8]; 30 mg/kg/day s.c., 12 weeks, Study 2): more than 50%
high fat diet increase in expression of genes that promote lipogenesis (LPL, FASN, SREBP-1, PLTP, Dhcr24) ([8]; BAT and WAT): reversed
Ddit3 (DNA damage inducible transcript III) gene expression [8, 10]: Decrease
Dhcr24 (dehydrocholesterol reductase) gene expression [8, 10]: Decreased
ER-β (Estrogen receptor β) gene expression [8, 10]: Increased
GPx-3 (glutathione peroxidase) gene expression [8, 10]: Increase
LPL (lipoprotein lipase) gene expression [8, 10]: Decrease
PLTP (phospholipid transfer protein) gene expression [8, 10]: Decrease
UCP-1 (uncoupled protein-1) gene expression [8, 10]: Increased
CIDEA (Cell death inducing DNA fragmentation factor) gene expression [8, 11]: Decrease
GPx-3 (glutathione peroxidase) gene expression [8, 11]: Increase
Ddit3 (DNA damage inducible transcript III) gene expression [8, 12]: Decrease
FASN (fatty acid synthase) gene expression [8, 12]: Decrease
LPL (lipoprotein lipase) gene expression [8, 12]: Decrease
SREBP1 (Sterol regulatory element binding protein 1) gene expression [8, 12]: Decrease
bone mineral content (BMC), DEXA [8, 13]: prevented the loss in BMC
serum cholesterol increase by high fat diet [8, 13]: significantly reversed
serum leptin increase by high fat diet [8, 13]: significantly reversed
white adipose tissue (WAT) weight ([8]; high fat diet, 30 mg/kg/day s.c., 12 weeks, FIG. 6B): significantly reduced
gastrocnemius muscle weight [8, 14]: increased gastrocnemius muscle weight
white adipose tissue (WAT) weight [8, 14]: prevented the increase in the WAT weight; also recorded: comparably decreased WAT weight
body fat (DEXA) [8, 15]: suppressing fat mass formation
reduction in body weight compared to high fat diet and vehicle [8, 15]: greater than 85%
weight gained more than normal diet-fed controls [8, 15]: 5%
serum macrophage inflammatory protein-1β (MIP-1β) increase by high fat diet ([8]; high fat diet, 30 mg/kg/day s.c., FIG. 6F): completely reversed
accumulation of fat in the liver (oil red staining) ([8]; high fat diet, 30 mg/kg/day s.c., FIG. 8): attenuated the accumulation of lipid droplets in the liver; also recorded: completely prevented the accumulation of fat in the liver
fat mass (MRI) [8, 16]: reduce fat mass
lean mass (MRI) [8, 16]: increase muscle mass; also recorded: increased the lean mass
prevention of the increase in body fat (MRI) [8, 16]: more than 50%
total caloric intake (feed consumption) ([8]; high fat diet, 30 mg/kg/day s.c., study 1): did not affect total caloric intake
blood glucose levels, glucose tolerance test ([8]; high fat diet, 30 mg/kg/day s.c., 150 mg glucose orally): not statistically different from the normal diet controls
testes weights ([8]; high fat diet, 12 weeks, FIG. 9A): not altered
serum testosterone levels ([8]; high fat diet, 12 weeks, FIG. 9B): did not affect; also recorded: not altered
serum follicle stimulating hormone (FSH) ([8]; high fat diet, 12 weeks, FIG. 9C): did not affect; also recorded: not altered

CCCc1c(-c2ccc(O)cc2)nn(-c2ccc(O)cc2)c1-c1ccc(O)cc1 [PPT, 1,3,5-tris(4-hydroxyphenyl)-4-propyl-1H-pyrazole]
SHP activity (SHP promoter [9]): increased SHP activity
